Target: Neutrophil collagenase (Homo sapiens, UniProt P22894)
Assay: Inhibition of human neutrophil collagenase [Matrix Metalloprotease-8, MMP-8]

Neutrophil collagenase, sequence (P22894 whole entry): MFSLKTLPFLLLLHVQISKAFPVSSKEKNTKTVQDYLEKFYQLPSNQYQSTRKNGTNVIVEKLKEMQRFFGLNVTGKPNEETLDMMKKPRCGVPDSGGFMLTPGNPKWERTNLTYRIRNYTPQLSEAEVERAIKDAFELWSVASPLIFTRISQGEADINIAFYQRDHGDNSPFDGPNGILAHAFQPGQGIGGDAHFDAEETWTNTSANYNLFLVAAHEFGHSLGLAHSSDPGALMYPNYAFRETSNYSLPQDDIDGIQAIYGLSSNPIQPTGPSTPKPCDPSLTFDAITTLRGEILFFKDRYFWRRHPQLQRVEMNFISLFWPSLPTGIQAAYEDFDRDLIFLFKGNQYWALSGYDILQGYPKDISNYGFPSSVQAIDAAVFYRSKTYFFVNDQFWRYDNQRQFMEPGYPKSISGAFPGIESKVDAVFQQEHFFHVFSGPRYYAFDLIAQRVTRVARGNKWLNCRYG

Row | Structure (SMILES) | IC50 [nM]
1 | COc1ccc(S(=O)(=O)N2Cc3cc(NC(=O)[C@H](CC(=O)OC(C)(C)C)NC(=O)OCc4ccccc4)ccc3C[C@H]2C(=O)NO)cc1 | 10
2 | O=C(NO)[C@H]1Cc2ccccc2CN1S(=O)(=O)Cc1ccccc1 | 3000
3 | COc1ccc(S(=O)(=O)N2Cc3ncn(C)c3C[C@@H]2C(=O)O)cc1 | 10000
4 | O=C(NO)[C@H]1Cc2ccccc2CN1S(=O)(=O)c1ccc(C(F)(F)F)cc1 | 50
5 | O=C(NO)[C@H]1Cc2ccccc2CN1S(=O)(=O)c1ccc(-c2ccccc2)cc1 | 2
6 | O=C(O)C(=O)[C@H]1Cc2ccccc2CN1S(=O)(=O)c1ccc(-c2ccc(Cl)cc2)cc1 | 5
7 | O=C(NO)[C@H]1Cc2ccccc2CN1S(=O)(=O)c1ccc(-c2ccon2)s1 | 8
8 | O=C(O)C(=O)[C@H]1Cc2ccccc2CN1S(=O)(=O)c1ccc(-c2nc3ccccc3o2)cc1 | 80
9 | O=C(NCc1csc(S(=O)(=O)N2Cc3ccccc3C[C@@H]2C(=O)NO)c1)c1ccccc1 | 800
10 | O=C(O)C(=O)[C@H]1Cc2ccc([N+](=O)[O-])cc2CN1S(=O)(=O)c1ccc(-c2ccc(F)cc2)cc1 | 40
11 | COc1ccc(OC(=O)Nc2cccc(S(=O)(=O)N3Cc4ccccc4C[C@@H]3C(=O)NO)c2)cc1 | 200
12 | O=C(NO)[C@H]1Cc2ccccc2CN1S(=O)(=O)CCc1ccncc1 | 30
13 | N#Cc1ccc(Oc2ccc(S(=O)(=O)N3Cc4ccccc4C[C@@H]3C(=O)C(=O)O)cc2)cc1 | 10
14 | COc1ccc(S(=O)(=O)N2Cc3cc(NC(=O)[C@H](C)NC(=O)OC(C)(C)C)ccc3C[C@H]2C(=O)NO)cc1 | 2
15 | CC(C)(C)OC(=O)Nc1ccc2c(c1)C[C@H](C(=O)C(=O)O)N(S(=O)(=O)c1ccc(-c3ccc(F)cc3)cc1)C2 | 30
16 | CC(=O)Nc1ccc(S(=O)(=O)N2Cc3ccccc3C[C@@H]2C(=O)NO)cc1 | 100
17 | O=C(O)C(=O)[C@H]1Cc2ccccc2CN1S(=O)(=O)c1ccc(/C=C/c2ccccc2)cc1 | 60

Row | Structure (SMILES) | IC50 [nM]
18 | O=C(O)C(=O)[C@H]1Cc2ccccc2CN1S(=O)(=O)c1ccc(-n2nccn2)cc1 | 90
19 | O=C(O)C(=O)[C@H]1Cc2cc([N+](=O)[O-])ccc2CN1S(=O)(=O)c1ccc(-c2ccc(Cl)cc2)cc1 | 20
20 | O=C(NO)[C@H]1Cc2ccccc2CN1S(=O)(=O)c1ccc2ccccc2c1 | 70
21 | O=C(O)C(=O)[C@H]1Cc2ccccc2CN1S(=O)(=O)c1ccc2oc3ccccc3c2c1 | 500
22 | Nc1ccc2c(c1)CN(S(=O)(=O)c1ccc(-c3ccc(F)cc3)cc1)[C@@H](C(=O)NO)C2 | 2
23 | O=C(NO)[C@H]1Cc2ccccc2CN1S(=O)(=O)Cc1ccc(-c2ccccn2)s1 | 2
24 | COc1ccc(S(=O)(=O)N2Cc3cc(NC(=O)[C@H](C)N)ccc3C[C@H]2C(=O)C(=O)O)cc1 | 2000
25 | CCCCOc1ccc(S(=O)(=O)N2Cc3ccccc3C[C@@H]2C(=O)NO)cc1 | 2
26 | O=C(NO)[C@H]1Cc2ccccc2CN1S(=O)(=O)c1ccc2[nH]c(-c3ccccc3)nc2c1 | 40
27 | CCCCCCCCCCCCCCCCS(=O)(=O)N1Cc2ccccc2C[C@@H]1C(=O)NO | 3000
28 | COc1ccc(S(=O)(=O)N2Cc3ncn(C)c3C[C@@H]2C(=O)NO)cc1 | 3
29 | Nc1ccc2c(c1)CN(S(=O)(=O)c1ccc(-c3ccc(Cl)cc3)cc1)[C@@H](C(=O)C(=O)O)C2 | 7
30 | O=C(NO)[C@H]1Cc2ccccc2CN1S(=O)(=O)c1ccc(OCc2ccc(F)cc2)cc1 | 2
31 | O=C(NO)[C@H]1Cc2ccccc2CN1S(=O)(=O)c1cc(Br)c(Br)s1 | 500
32 | O=C(NO)[C@H]1Cc2ccccc2CN1S(=O)(=O)c1cc(S(=O)(=O)c2ccccc2)cs1 | 2000
33 | O=C(NO)[C@H]1Cc2ccccc2CN1S(=O)(=O)c1ccc(N2CCOCC2)cc1 | 100
34 | O=C(O)C(=O)C1Cc2ccccc2CN1S(=O)(=O)c1ccc(-c2ccc(Cl)cc2)cc1 (single isomer, unassigned) | 3000

Now from value to compound:

Row | IC50 [nM] | Structure (SMILES)
35 | 40 | CNC(=O)c1ccc(Oc2ccc(S(=O)(=O)N3Cc4ccccc4C[C@@H]3C(=O)C(=O)O)cc2)cc1
36 | 1000 | COc1ccc(S(=O)(=O)N2Cc3ccccc3C[C@H]2C(=O)NO)cc1
37 | 600 | O=C(O)C(=O)[C@H]1Cc2ccccc2CN1S(=O)(=O)c1ccc(-c2ccon2)s1
38 | 1 | COc1ccc(S(=O)(=O)N2Cc3cc(O)ccc3C[C@@H]2C(=O)NO)cc1
39 | 10 | CC(C)(C)OC(=O)Nc1ccc2c(c1)CN(S(=O)(=O)c1ccc(-c3ccc(F)cc3)cc1)[C@@H](C(=O)NO)C2
40 | 1000 | CSc1nccc(-c2ccc(S(=O)(=O)N3Cc4ccccc4C[C@@H]3C(=O)C(=O)O)s2)n1
41 | 30 | CCOC(=O)Nc1ccc(S(=O)(=O)N2Cc3ccccc3C[C@@H]2C(=O)NO)cc1
42 | 3 | O=C(NO)[C@H]1Cc2ccccc2CN1S(=O)(=O)c1ccc(-c2ccc(Cl)cc2)cc1
43 | 30 | CN(C)c1ccc(Oc2ccc(S(=O)(=O)N3Cc4ccccc4C[C@@H]3C(=O)C(=O)O)cc2)cc1
44 | 1 | CN(C)c1ccc(-c2ccc(S(=O)(=O)N3Cc4ccccc4C[C@@H]3C(=O)C(=O)O)cc2)cc1
45 | 20 | O=C(O)C(=O)[C@H]1Cc2ccccc2CN1S(=O)(=O)CCc1ccc(-c2ccccc2)cc1
46 | 8 | COc1ccc(S(=O)(=O)N2Cc3cc([N+](=O)[O-])ccc3C[C@@H]2C(=O)NO)cc1
47 | 20 | CSc1nccc(-c2ccc(S(=O)(=O)N3Cc4ccccc4C[C@@H]3C(=O)NO)s2)n1
48 | 40 | COc1ccc(S(=O)(=O)N2Cc3cc(NC(=O)CCC(=O)O)ccc3C[C@@H]2C(=O)NO)cc1
49 | 200 | O=C(Nc1cccc(S(=O)(=O)N2Cc3ccccc3C[C@@H]2C(=O)NO)c1)c1ccccc1O
50 | 80 | COC(=O)c1csc(S(=O)(=O)N2Cc3ccccc3C[C@@H]2C(=O)NO)c1OC
51 | 2 | CN(C)c1ccc(-c2ccc(S(=O)(=O)N3Cc4ccccc4C[C@@H]3C(=O)NO)cc2)cc1
52 | 3 | COc1ccc(S(=O)(=O)N2Cc3cc(NC(=O)OC(C)(C)C)ccc3C[C@@H]2C(=O)NO)cc1
53 | 4 | COc1ccc(S(=O)(=O)N2Cc3ccccc3C[C@@H]2C(=O)NO)cc1
54 | 2000 | COc1ccc(S(=O)(=O)N2Cc3cc(N)ccc3C[C@@H]2C(=O)C(=O)O)cc1
